From the NIST ThermoML archive (doi:10.1021/je300382a)

Experiments:
[1] = refractive index (Na D-line) (dimensionless); xn = mol fraction of the nth substance listed; conditions: 101 kPa, Liquid, Standard Abbe refractometry
[2] = xn = mol fraction of the nth substance listed; conditions: Ring tensiometer

CC(N)CN (stereo not given) [1,2-propanediamine] + O
Conditions	refractive index, 283.15 K	refractive index, 293.15 K	refractive index, 303.15 K	refractive index, 313.15 K	refractive index, 323.15 K	surface tension liquid-gas, 283.15 K [mN/m]	surface tension liquid-gas, 293.15 K [mN/m]	surface tension liquid-gas, 303.15 K [mN/m]	surface tension liquid-gas, 313.15 K [mN/m]	surface tension liquid-gas, 323.15 K [mN/m]
[1], x1 = 0.01	1.34	1.3392	1.3381	1.3366	1.3352	–	–	–	–	–
[1], x1 = 0.03	1.3522	1.3512	1.3499	1.3488	1.3478	–	–	–	–	–
[1], x1 = 0.05	1.3635	1.3621	1.3604	1.3592	1.3579	–	–	–	–	–
[1], x1 = 0.07	1.374	1.3723	1.3703	1.3685	1.3667	–	–	–	–	–
[1], x1 = 0.1	1.3882	1.3859	1.3835	1.3816	1.3797	–	–	–	–	–
[1], x1 = 0.2	1.4209	1.4173	1.4137	1.4111	1.4085	–	–	–	–	–
[1], x1 = 0.3	1.4356	1.4317	1.4273	1.4236	1.4208	–	–	–	–	–
[1], x1 = 0.4	1.4448	1.4405	1.4363	1.4321	1.4279	–	–	–	–	–
[1], x1 = 0.5	1.4486	1.4443	1.4401	1.4356	1.4311	–	–	–	–	–
[1], x1 = 0.6	1.4504	1.4459	1.4415	1.4369	1.4323	–	–	–	–	–
[1], x1 = 0.7	1.4511	1.4466	1.4418	1.4374	1.4325	–	–	–	–	–
[1], x1 = 0.8	1.4515	1.4468	1.442	1.4371	1.4323	–	–	–	–	–
[1], x1 = 0.9	1.4512	1.4465	1.4415	1.4368	1.4319	–	–	–	–	–
[1], x1 = 1	1.451	1.4458	1.4409	1.4362	1.4314	–	–	–	–	–
[2], x1 = 0.01	–	–	–	–	–	67.4	66.1	64.7	62.8	61
[2], x1 = 0.03	–	–	–	–	–	62.1	60.5	58.7	57.3	56
[2], x1 = 0.05	–	–	–	–	–	58.1	56.4	55	53.7	52.2
[2], x1 = 0.07	–	–	–	–	–	55	53.5	51.9	50.5	49.1
[2], x1 = 0.1	–	–	–	–	–	51.7	50.5	48.9	47.3	45.8
[2], x1 = 0.2	–	–	–	–	–	47.6	46.4	45	43.2	41.9
[2], x1 = 0.3	–	–	–	–	–	44.8	43.7	42.4	41	39.7
[2], x1 = 0.4	–	–	–	–	–	42.5	41.1	40.1	38.6	37.4
[2], x1 = 0.5	–	–	–	–	–	40.6	39.2	37.9	36.6	35.5
[2], x1 = 0.6	–	–	–	–	–	38.3	37.2	36.1	35.1	33.9
[2], x1 = 0.7	–	–	–	–	–	37.5	36.4	35.2	34.1	32.9
[2], x1 = 0.8	–	–	–	–	–	36.2	35.1	33.9	32.7	31.7
[2], x1 = 0.9	–	–	–	–	–	35.4	34.2	33	31.9	30.7
[2], x1 = 1	–	–	–	–	–	35	33.8	32.7	31.4	30.3

NCc1ccccc1 [benzylamine] + O
Conditions	refractive index, 283.15 K	refractive index, 293.15 K	refractive index, 303.15 K	refractive index, 313.15 K	refractive index, 323.15 K	surface tension liquid-gas, 283.15 K [mN/m]	surface tension liquid-gas, 293.15 K [mN/m]	surface tension liquid-gas, 303.15 K [mN/m]	surface tension liquid-gas, 313.15 K [mN/m]	surface tension liquid-gas, 323.15 K [mN/m]
[1], x1 = 0.0001	1.3338	1.3331	1.3321	1.331	1.3298	–	–	–	–	–
[1], x1 = 0.0005	1.3344	1.3337	1.3326	1.3312	1.3297	–	–	–	–	–
[1], x1 = 0.001	1.3351	1.3343	1.3333	1.3318	1.3303	–	–	–	–	–
[1], x1 = 0.003	1.3376	1.3368	1.3357	1.3342	1.3327	–	–	–	–	–
[1], x1 = 0.006	1.3411	1.3403	1.3392	1.3376	1.3361	–	–	–	–	–
[1], x1 = 0.01	1.3461	1.3449	1.3441	1.3423	1.3405	–	–	–	–	–
[1], x1 = 0.03	1.3683	1.367	1.3654	1.3634	1.3614	–	–	–	–	–
[1], x1 = 0.05	1.387	1.3853	1.3834	1.381	1.3787	–	–	–	–	–
[1], x1 = 0.07	1.4047	1.4007	1.3985	1.3961	1.3937	–	–	–	–	–
[1], x1 = 0.1	1.4252	1.4214	1.4183	1.4163	1.4136	–	–	–	–	–
[1], x1 = 0.2	1.468	1.4648	1.4614	1.4592	1.4569	–	–	–	–	–
[1], x1 = 0.3	1.4957	1.4918	1.4879	1.4848	1.4818	–	–	–	–	–
[1], x1 = 0.4	1.5143	1.5097	1.5057	1.5024	1.4985	–	–	–	–	–
[1], x1 = 0.5	1.5263	1.5218	1.5172	1.5129	1.5084	–	–	–	–	–
[1], x1 = 0.6	1.5343	1.5296	1.5252	1.5202	1.5159	–	–	–	–	–
[1], x1 = 0.7	1.5399	1.5355	1.5307	1.5259	1.5211	–	–	–	–	–
[1], x1 = 0.8	1.5447	1.5397	1.5344	1.5296	1.5247	–	–	–	–	–
[1], x1 = 0.9	1.5491	1.5429	1.5375	1.5319	1.527	–	–	–	–	–
[1], x1 = 1	1.5516	1.5445	1.5393	1.5328	1.5279	–	–	–	–	–
[2], x1 = 0.0001	–	–	–	–	–	69.5	67.7	65.5	63.2	61.6
[2], x1 = 0.0005	–	–	–	–	–	60.4	58.1	56.1	54.3	52.3
[2], x1 = 0.001	–	–	–	–	–	54.9	53.1	50.6	48.8	47.2
[2], x1 = 0.003	–	–	–	–	–	48.6	46.1	44.3	42.6	40.1
[2], x1 = 0.006	–	–	–	–	–	42.1	40.7	39.2	37.7	36.4
[2], x1 = 0.01	–	–	–	–	–	41.4	40	38.6	37.5	36
[2], x1 = 0.03	–	–	–	–	–	39.5	38.4	37.5	36.3	35.6
[2], x1 = 0.05	–	–	–	–	–	39.3	38.3	37.5	36.3	35.5
[2], x1 = 0.07	–	–	–	–	–	38.9	38.1	37.3	36.2	35.5
[2], x1 = 0.1	–	–	–	–	–	38.7	38	37.2	36.2	35.4
[2], x1 = 0.2	–	–	–	–	–	38.6	37.8	37	36.1	35.4
[2], x1 = 0.3	–	–	–	–	–	38.4	37.5	36.9	35.9	35.2
[2], x1 = 0.4	–	–	–	–	–	38.4	37.5	36.9	35.9	35.2
[2], x1 = 0.5	–	–	–	–	–	38.3	37.6	36.8	35.9	35.2
[2], x1 = 0.6	–	–	–	–	–	38.2	37.4	36.6	35.7	35.2
[2], x1 = 0.7	–	–	–	–	–	38.1	37.3	36.5	35.8	35.1
[2], x1 = 0.8	–	–	–	–	–	38.1	37.3	36.5	35.8	35.1
[2], x1 = 0.9	–	–	–	–	–	38	37.2	36.4	35.7	35.1
[2], x1 = 1	–	–	–	–	–	37.9	37.1	36.3	35.6	35
